From the OligoGym collection come the findings set out here.

The target of one data set is DGAT2. Conditions: ASO.
A further data set addresses SNHG14. The conditions noted are these: ASO, Human Neuronal Cell, 7.5 µM.

Several values for one entry are separate records, joined by “and”; a condition that tells them apart may be missing. Equal values may be shown once. After the bases stand the sugars from the 5' end (letter, count) and the backbone: PS all phosphorothioate, else s phosphorothioate and o phosphodiester by linkage. Methylation of C is not given here. e = 2'-O-(2-methoxyethyl) (MOE); l = locked nucleic acid (LNA); d = 2'-deoxy (DNA)

Sequence “AAACCCTCGACTGAGTGTGA (sugars e5 d10 e5, PS)” showed a target mRNA inhibition in the data set with DGAT2 (HepG2, 0.12 µM) of 37%.

As to “AAATCCATGTCAGAGAGGCT (sugars e5 d10 e5, PS)”, the target mRNA inhibition in the data set with DGAT2 (HepG2, 2.5 µM) was 64%; in the data set with DGAT2 (HepG2, 10 µM), 92%. For “AACAGGGTACAACTCTCTTG (sugars e5 d10 e5, PS)”, in that order: 61% and 92%. As to “AACCACTGTTGCTGAGCTCA (sugars e5 d10 e5, PS)”, the target mRNA inhibition with DGAT2 (HepG2, 2.5 µM) is 74% and 72%; in the data set with DGAT2 (HepG2, 10 µM), 88%. Regarding “AACTCTGCCATTTAATGAGC (sugars e5 d10 e5, PS)”, the target mRNA inhibition turned out to be 17% with DGAT2 (HepG2, 2.5 µM) and 53% in the data set with DGAT2 (HepG2, 10 µM).

Turning to “AACTGAGATCTCCAGCAGCA (sugars e5 d10 e5, PS)”, the target mRNA inhibition is 91% and 78% with DGAT2 (HepG2, 2.5 µM); 94% and 96% with DGAT2 (HepG2, 10 µM). For “AAGAGCTTCACCAGGGCCTC (sugars e5 d10 e5, PS)”, the target mRNA inhibition in the data set with DGAT2 (HepG2, 0.12 µM) is 44%; in the data set with DGAT2 (HepG2, 2.5 µM) it was 10% and 22%; with DGAT2 (HepG2, 10 µM), 83%; with DGAT2 (HepG2, 20 µM), 92%. As for “AAGCCTCGGTGTCCTCTCCT (sugars e5 d10 e5, PS)”, the target mRNA inhibition with DGAT2 (HepG2, 2.5 µM) was found to be 50%; with DGAT2 (HepG2, 10 µM), 87%.

As to “AAGGCACCTGTTACTACATG (sugars e5 d10 e5, PS)”, the target mRNA inhibition with DGAT2 (HepG2, 2.5 µM) was determined as 67%; with DGAT2 (HepG2, 10 µM), 93%. For “AAGTAAGCCTCGGTGTCCTC (sugars e5 d10 e5, PS)”, in that order: 84% and 69%. Consider “AAGTGAACCCTCACTTCCCA (sugars e5 d10 e5, PS)”, for which the target mRNA inhibition in the data set with DGAT2 (HepG2, 0.12 µM) came out at 35%. As for “AATGCCAATGCCTAGGT (sugars e3 d10 e4, PS)”, the target mRNA inhibition was 70% and 69% in the data set with DGAT2 (HepG2, 2.5 µM); 81% and 82% in the data set with DGAT2 (HepG2, 10 µM).

In the data set with DGAT2 (HepG2, 0.12 µM), “AATTTCCTTACAGGGTATTG (sugars e5 d10 e5, PS)” came in with a target mRNA inhibition of 46%. In the case of “ACAAAAGTCTGACATGGTGC (sugars e5 d10 e5, PS)”, the target mRNA inhibition turned out to be 77% with DGAT2 (HepG2, 2.5 µM) and 78% with DGAT2 (HepG2, 10 µM).

For “ACACACAATATCCATGGACT (sugars e5 d10 e5, PS)”, the target mRNA inhibition was found to be 68% with DGAT2 (HepG2, 2.5 µM) and 95% with DGAT2 (HepG2, 10 µM).

With “ACAGCCCAGTTTCGGACCCA (sugars e5 d10 e5, PS)”, the target mRNA inhibition with DGAT2 (HepG2, 0.12 µM) worked out at 27%. In the case of “ACAGCGATGAGCCAGCA (sugars e3 d10 e4, PS)”, the target mRNA inhibition with DGAT2 (HepG2, 2.5 µM) is 45%; with DGAT2 (HepG2, 10 µM), 88%. In turn, “ACAGGACCCACTGGAGCACT (sugars e5 d10 e5, PS)” displayed a target mRNA inhibition in the data set with DGAT2 (HepG2, 0.12 µM) of 79%.

Consider “ACATATCCCCAACTGAAACA (sugars e5 d10 e5, PS)”, for which the target mRNA inhibition with DGAT2 (HepG2, 0.12 µM) worked out at 21%. On the same count and under the same terms, then “ACCAGCTGGATGGGAAAGTA (sugars e5 d10 e5, PS)”, with 21%; and “ACCCCCTCAGGAAGGCACAG (sugars e5 d10 e5, PS)”, with 25%. Regarding “ACCTCACCTCCATACTGGCA (sugars e5 d10 e5, PS)”, the target mRNA inhibition with DGAT2 (HepG2, 2.5 µM) stood at 65%; with DGAT2 (HepG2, 10 µM), 86%. For the sequence “ACCTCGATGTTACATTAAGG (sugars e5 d10 e5, PS)”, the target mRNA inhibition with DGAT2 (HepG2, 2.5 µM) was determined as 68%; with DGAT2 (HepG2, 10 µM) it was 90%. For “ACTATCACACCACCTCCCAC (sugars e5 d10 e5, PS)”, in that order: 2% and 62%.

Regarding “ACTCCCACCTGAGTGCTGCA (sugars e5 d10 e5, PS)”, the target mRNA inhibition with DGAT2 (HepG2, 2.5 µM) worked out at 92%; with DGAT2 (HepG2, 10 µM), 80%.

The sequence “ACTCCCAGTACAAGGAAGGA (sugars e5 d10 e5, PS)” returned a target mRNA inhibition with DGAT2 (HepG2, 0.12 µM) of 3%. In the case of “ACTGAGATCTCCAGCAGCAA (sugars e5 d10 e5, PS)”, the target mRNA inhibition is 50% and 61% and 56% in the data set with DGAT2 (HepG2, 2.5 µM); 90% and 93% and 92% with DGAT2 (HepG2, 10 µM). In the case of “TTTTTTTCTTACTATCTTCA (sugars l3 d15 l2, PS)”, in the data set with SNHG14, the target mRNA inhibition was 28%. The same measure, in the same setting: next, “TTTTTTTCTTACTATCTTCA (sugars ldlddddddddddlddddll, PS)”: 46%.
